Test results taken from patent publication US12509460B2 (Skyhawk Therapeutics, Inc., priority 2019, dated 2025).

How the values were obtained:
[1] = test system: SMN protein in spinal muscular atrophy (SMA) patient fibroblasts (GM03813, Coriell); experiment: SMN protein assay, Mesoscale Discovery (MSD); format: cell-based, human; details: SMA patient fibroblasts GM03813, 48 hours, MSD; read-out: SMN2 protein EC50
Procedure, shortened: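 SMA patient fibroblasts (GM03813) seeded at 7000 cells/well and exposed to compound at 2.5 μM to 0.6 nM for 48 hours. Lysates assayed for SMN by MSD immunoassay, with absolute SMN amount calculated from a per-plate SMN standard curve (1 μg/ml to 19.5 pg/ml).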

MDR1 = experiment: Blood-brain-barrier (BBB) penetration potential via MDCK-MDR1 permeability assay; details: dog, MDCK-MDR1, pH 7.4, MDCK-MDR1: Efflux, efflux ratio
MDR1 (P-gp) = experiment: as above; details: dog
[2] = test system: MDR1-MDCK cell monolayers; experiment: as above
[3] = test system: mHTT protein in GM04724 (CAG 70/20) Huntington's disease patient lymphoblast cells; experiment: mHTT protein assay, 2B7-MW1 assay via Mesoscale Discovery (MSD); format: cell-based, human; details: GM04724 Huntington's disease patient lymphoblasts
Procedure, shortened: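 Patient lymphoblasts treated 48 h with compound from 10 μM to 0.6 nM. mHTT quantified by MSD 2B7-MW1 immunoassay, whose signal depends on polyQ expansion and HTT size. Viability measured on a replicate plate by CellTiter Glo.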

[4] = test system: Huntingtin (HTT) transcripts, cryptic exon within intron 49, in GM04724 (CAG 70/20) Huntington's disease patient lymphoblasts; experiment: Quantitative splicing assay (HTT), qPCR; format: cell-based, human; details: 24 h, qPCR, read-out: HTT Splicing: E49-50 EC50
Procedure, shortened: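 Patient lymphoblasts (50,000 cells/well) dosed immediately after plating for 24 h at 2.5 uM to 0.15 nM in 0.1% DMSO. Lysed, cDNA made directly from cells, and inclusion of the intron 49 cryptic exon quantified by TaqMan qPCR.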

[5] = test system: SMN FL and SMN Δ7 in spinal muscular atrophy (SMA) patient fibroblasts (GM03813, Coriell); experiment: Quantitative splicing assay (SMN), qPCR; format: cell-based, human; details: Homo sapiens, Fibroblast, 24 h, SMA patient fibroblasts GM03813, 24 h, qPCR; read-out: SMN2 Splicing FL EC50
Experimental: Spinal muscular atrophy (SMA) patient fibroblasts (GM03813, Coriell) are plated in 96-well plates at 50,000 cells/well. […] Treated cells are lysed and cDNA synthesized using the Fast Advanced Cells-to-Ct kit (Thermofisher A35378) according to the manufacturer's instructions. 2 μL of each cDNA are used in qPCR reactions. […] Reactions are run in a Quant Studio 6 qPCR instrument with default settings.

Compound | EC50 [1] [nM] | efflux ratio at 120 min, 5 μM (MDR1) | Papp A→B at 120 min, 5 μM (MDR1 (P-gp); MDCK-MDR1, pH 7.4, MDCK-MDR1: Papp A-B, A-B direction) [×10⁻⁶ cm/s] | Papp B→A at 120 min, 5 μM (MDR1 (P-gp); MDCK-MDR1, pH 7.4, MDCK-MDR1: Papp B-A, B-A direction) [×10⁻⁶ cm/s] | MDCK-MDR1: % Recov A-B ([2]; A-B direction) [%] | MDCK-MDR1: % Recov B-A ([2]; B-A direction) [%] | EC50 [3] [nM] | EC50 [4] [nM] | EC50 [5] [nM] | MDCK-MDR1: Papp A-B ([2]; A-B direction) | MDCK-MDR1: Papp B-A ([2]; B-A direction) | MDCK-MDR1: Efflux ([2]; efflux ratio)
CN(c1ccc(-c2ccc(-c3cn[nH]c3)cc2O)nn1)C1CC2COCC(N2)C1F (centres unmarked) [Compound 8A] | 101 to 500 | 36 | 1.67 | 59.3 | 87 | 93 | 0.01 to 15 | 16 to 50 |  |  |  | 
CN(c1ccc(-c2ccc(-c3cn[nH]c3)cc2O)nn1)C1CC2COCC(N2)C1F (centres unmarked) [Compound 8B] | 16 to 50 |  |  |  | 84 | 98 | 0.01 to 15 | 0.01 to 15 | 16 to 50 | 2.04 10^−6, cm/s | 39.1 10^−6, cm/s | 19
